Results taken from PMC8556085, “Antimicrobial and Antioxidant Secondary Metabolites from Trifolium baccarinii Chiov. (Fabaceae) and Their Mechanisms of Antibacterial Action” (BioMed Research International, 2021).
Converted amounts (≈) assume the structure as drawn. Marks after values point to notes of the source that are not given here.

Tests used:
[1] = parameters: method as in doi:10.22159/ijpps.2017v9i2.13964; conditions: cited from earlier work
[2] = test system: Gram-positive (S. aureus, S. epidermidis) and Gram-negative (P. aeruginosa) bacteria; parameters: method as in PMID 26887239; conditions: cited from earlier work
[3] = test system: tested bacteria and yeasts; test: Broth microdilution MIC/MMC, summary over all strains; format: cell-based; conditions: for antimicrobial activity class of pure compounds by cutoff points: against specific microorganism, cutoff points of ref 33; for MIC: read-out: MIC (range over the tested microorganisms)
Description: (§1) The antimicrobial activity was performed against five bacterial and two fungal species. The selected microorganisms were the Gram-positive (Staphylococcus aureus ATCC25923, methicillin-resistant Staphylococcus aureus 03 (MRSA03), and methicillin-resistant Staphylococcus aureus 04 (MRSA04)) and Gram-negative (Pseudomonas aeruginosa ATCC27853 and Escherichia coli S2(1)) bacteria and yeast strains of Candida albicans ATCC10231 and Cryptococcus neoformans H99. These microorganisms were taken from our laboratory collection. The fungal and bacterial strains were conserved on Sabouraud Dextrose Agar (SDA, Conda, Madrid, Spain) and nutrient agar (NA, Conda) slants, respectively.
(§2) The antimicrobial activity was investigated by determining the minimum inhibitory concentrations (MICs), minimum bactericidal concentrations (MBC), and minimum fungicidal concentrations (MFCs). MICs of extracts/compounds were monitored using the broth microdilution method. Dimethyl sulfoxide (DMSO, Fisher Chemicals) was used to dissolve the test sample to produce a stock solution that was twofold serially diluted in Mueller-Hinton broth (MHB) for bacteria and Sabouraud Dextrose Broth (SDB) for fungi to obtain a concentration range of 4096 to 0.25 μg/mL. One hundred microliters of each concentration was introduced into a well (96-well microplate) containing 90 μL of SDB or MHB and 10 μL of inoculum (at 1 × 10^6 CFU/mL for bacteria and 1 × 10^5 spores/mL for yeasts) which were added to obtain a final concentration range of 2048 to 0.125 μg/mL. Plates were covered and incubated on the shaker at 37°C, 30°C, and 30°C during 24 h, 48 h, and 72 h for bacteria, Candida albicans, and Cryptococcus neoformans, respectively. The MICs were visually assessed after the incubation period and were considered the lowest sample concentration that inhibits the growth or the visual growth of the organism.
(§3) The positive controls were oxacillin (Sigma-Aldrich, Steinheim, Germany) for bacteria and nystatin (Sigma-Aldrich, Steinheim, Germany) for yeasts, and the negative control was broth with 20 μL of DMSO. The assay was carried out in triplicate.

[4] = parameters: method as in doi:10.22159/ijpps.2017v9i2.13964; conditions: cited from earlier work; remark: listed apart in the source
[5] = Gallic acid equivalent antioxidant capacity (GEAC) assay; conditions: ABTS radical, 420 nm, 240 s; mean ± SD
Description: The GEAC test was performed as described previously with some slight modifications. The laccase was purified from Sclerotinia sclerotiorum according to the described protocol. 20 μL of laccase (1 mM stock solution), 20 μL of test sample, 10 μL of ABTS (2,2′-azino-bis(3-ethylbenzothiazoline-6-sulfonic acid) (74 mM stock solution), and 950 μL of acetate buffer (pH = 5.0, 100 mM) were added in a quartz cuvette. The concentrations of the samples in the assay mixture were 800, 400, 200, 100, and 10 μg/mL for the extracts and 200, 100, 50, 25, and 12.5 μg/mL for the isolated compounds. The content of the generated ABTS^●+ radical was measured at 420 nm after 240 s reaction time and was converted to gallic acid equivalents by the use of a calibration curve (Pearson's correlation coefficient: r = 0.998) constructed with 0, 4, 10, 14, 28, 56, and 84 μM gallic acid standards rather than Trolox. Experiments were done in triplicate and repeated three times with similar results.

[6] = parameters: method as in doi:10.22159/ijpps.2017v9i2.13964; conditions: cited from earlier work; remark: listed apart in the source
[7] = test system: yeasts (C. albicans, C. tropicalis, and C. neoformans); parameters: method as in PMID 26887239; conditions: cited from earlier work
[8] = DPPH free radical scavenging assay; conditions: mean ± SD
Description: The free radical scavenging activity of extracts and compounds was evaluated according to the described method. The EC50 (μg/mL), which is the amount of sample necessary to inhibit by 50% the absorbance of free radical DPPH, was calculated. Vitamin C was used as a standard control. All the analyses were carried out in triplicate and repeated three times.

[9] = test system: Candida albicans ATCC10231; test: Broth microdilution MIC/MMC; format: cell-based; conditions: for MFC / MMC/MIC: Candida albicans ATCC10231; for MIC: Candida albicans ATCC10231, 48 h, 30°C, read-out: MIC
Description: as §1, §2, §3

[10] = test system: Staphylococcus aureus ATCC25923; test: Broth microdilution MIC/MMC; format: cell-based; conditions: for MBC / MMC/MIC: Staphylococcus aureus ATCC25923; for MIC: Staphylococcus aureus ATCC25923, 24 h, 37°C, read-out: MIC
Description: as §1, §2, §3

[11] = test system: Escherichia coli S2(1); test: Broth microdilution MIC/MMC; format: cell-based; conditions: for MIC: 24 h, 37°C, read-out: MIC
Description: as §1, §2, §3

[12] = test system: methicillin-resistant Staphylococcus aureus 03 (MRSA03); test: Broth microdilution MIC/MMC; format: cell-based; conditions: for MMC/MIC / MBC: MRSA03; for MBC / MIC: Staphylococcus aureus; for MIC: MRSA03, 24 h, 37°C, read-out: MIC
Description: as §1, §2, §3

[13] = test system: Pseudomonas aeruginosa ATCC27853; test: Broth microdilution MIC/MMC; format: cell-based; conditions: for MBC / MMC/MIC: Pseudomonas aeruginosa ATCC27853; for MIC: Pseudomonas aeruginosa ATCC27853, 24 h, 37°C, read-out: MIC
Description: as §1, §2, §3

[14] = test system: Cryptococcus neoformans H99; test: Broth microdilution MIC/MMC; format: cell-based; conditions: for MFC / MMC/MIC: Cryptococcus neoformans H99; for MIC: Cryptococcus neoformans H99, 72 h, 30°C, read-out: MIC
Description: as §1, §2, §3

[15] = test system: methicillin-resistant Staphylococcus aureus 04 (MRSA04); test: Broth microdilution MIC/MMC; format: cell-based; conditions: for MMC/MIC / MBC: MRSA04; for MBC / MIC: Staphylococcus aureus; for MIC: MRSA04, 24 h, 37°C, read-out: MIC
Description: as §1, §2, §3

[16] = parameters: method as in doi:10.22159/ijpps.2017v9i2.13964; conditions: cited from earlier work; remark: listed apart in the source
[17] = parameters: method as in doi:10.22159/ijpps.2017v9i2.13964; conditions: cited from earlier work; remark: listed apart in the source
[18] = test system: methicillin-resistant Staphylococcus aureus and methicillin-sensitive S. aureus strains; parameters: method as in PMID 27284353; conditions: MRSA and MSSA strains, previous study; cited from earlier work

Structure (SMILES) | antimicrobial activity class of pure compounds by cutoff points [3] | MIC [3] [µg/mL] | Gallic acid equivalent antioxidant capacity (GEAC) [5] | DPPH free radical scavenging activity (EC50) [8] | MFC [9] [µg/mL] | MMC/MIC [9] | MIC [9] [µg/mL] | MBC [10] [µg/mL] | MMC/MIC [10] | MIC [10] [µg/mL] | MBC [11] [µg/mL] | MMC/MIC [11] | MIC [11] [µg/mL] | MMC/MIC [12] | MBC [12] [µg/mL] | MIC [12] [µg/mL] | MBC [13] [µg/mL] | MMC/MIC [13] | MIC [13] [µg/mL] | MFC [14] [µg/mL] | other results
COc1ccc(-c2coc3cc(O)ccc3c2=O)cc1 [compound 2, formononetin] | moderate/low | 64 to 128 (≈ 239 to 477 µM) | 77.91 ± 0.59^e μg/mL | 6.39 ± 0.62^e μg/mL | 128 (≈ 477 µM) | 2 | 64 (≈ 239 µM) | 128 (≈ 477 µM) | 2 | 64 (≈ 239 µM) | 128 (≈ 477 µM) | 2 | 64 (≈ 239 µM) | 2 | 256 (≈ 954 µM) | 128 (≈ 477 µM) | 128 (≈ 477 µM) | 1 | 128 (≈ 477 µM) | 64 (≈ 239 µM) | IC50 against nitric oxide [1]: 5.0 µg/mL (≈ 18.6 µM); minimum inhibitory concentration [2]: 200 µg/mL (≈ 746 µM); IC50 against hydroxyl radical [4]: 9.48 µg/mL (≈ 35.3 µM); IC50 against superoxide radical [6]: 4.27 µg/mL (≈ 15.9 µM); minimum inhibitory concentration [7]: 25 µg/mL (≈ 93.2 µM); MMC/MIC [14]: 1; MIC [14]: 64 µg/mL (≈ 239 µM); MMC/MIC [15]: 2; MBC [15]: 256 µg/mL (≈ 954 µM); MIC [15]: 128 µg/mL (≈ 477 µM); IC50 against hydrogen peroxide [16]: 4.75 µg/mL (≈ 17.7 µM); IC50 against DPPH [17]: 4.65 µg/mL (≈ 17.3 µM)
O=c1cc(-c2ccc(O)c(O)c2)oc2cc(O)cc(O)c12 [compound 3, luteolin] | significant/moderate | 8 to 32 (≈ 27.9 to 112 µM) | 68.30 ± 0.71^f μg/mL | 8.02 ± 1.16^e μg/mL | 32 (≈ 112 µM) | 2 | 16 (≈ 55.9 µM) | 64 (≈ 224 µM) | 2 | 32 (≈ 112 µM) | 32 (≈ 112 µM) | 1 | 32 (≈ 112 µM) | 1 | 16 (≈ 55.9 µM) | 16 (≈ 55.9 µM) | 64 (≈ 224 µM) | 2 | 32 (≈ 112 µM) | 16 (≈ 55.9 µM) | MMC/MIC [14]: 2; MIC [14]: 8 µg/mL (≈ 27.9 µM); MMC/MIC [15]: 2; MBC [15]: 64 µg/mL (≈ 224 µM); MIC [15]: 32 µg/mL (≈ 112 µM); MIC [18]: 62.5 µg/mL (≈ 218 µM)
